This note sets out measurements from US10765115B2 (priority 2015, dated 2020).

The format of data set [1] is physicochemical. The conditions noted are these: pH 7.
A further data set deals with legionella bacteria. In kind it is cell-based. The conditions noted are these: initial 10^7 CFU/100 mL, after 24 hours, 36° C., pH 7.0.

In the case of `Cn1sc(Cl)cc1=O` [Sample 11, 5-chloro-2-methyl-4-isothiazoline-3-one], in data set [1], the “Residual concentration Cl2 (monochlorosulfamic acid as Cl2)” value (“Residual concentration Cl2” below) came to 0 mg/L and the “Residual concentration Cl-MIT” value was 2.1 µg/L. In addition, the Sterilizing rate in the data set with legionella bacteria was determined as 100%.
In the case of `Cn1sc(Cl)cc1=O` [Sample 17, 5-chloro-2-methyl-4-isothiazoline-3-one], in data set [1], the “Residual concentration Cl2” value was found to be 0 mg/L and the “Residual concentration Cl-MIT” value is 600.0 µg/L.
For `Cn1sc(Cl)cc1=O` [Sample 19, 5-chloro-2-methyl-4-isothiazoline-3-one], in data set [1], the “Residual concentration Cl2” value is 0 mg/L and the “Residual concentration Cl-MIT” value worked out at 1500.0 µg/L.
